# Assay results: patent US20120035187A1 (priority 2009, published 2012)
# Key:
# PC12-HS cells [1] = assay: Evaluation A: neurocyte (cell)-growth-promoting action, ALAMAR BLUE; format: cell-based, rat
# Protocol: Then, the effects of test samples were judged as follows:
# The relative value of 140 to 199: Equivalent effect to that of NK-4, symbol (∘); The relative value of 200 or higher: Stronger effect than that of NK-4, symbol ([…]). • The results are in Table 6.
# The relative fluorescent intensity of each well was determined by using the fluorescent intensity of each well with cells, which had been cultured by admixing with D-MEM medium containing 10% by volume of FBS without any of the compounds, and the intensity of the resulting culture was regarded as 100%. The results are expressed as cell survival percentages (%) in Table 9. […]
# The test was conducted twice for each test sample in a triplicate manner and the data were averaged.
# Seven compounds as in Table 17, NK-234, NK-26, NK-9815, NK-9694, NK-28 and NK-147 as well as NK-4, were each dissolved in DMSO to give a concentration of 5 mg/ml. […] The test was conducted twice for each test sample in a triplicate manner and the data were averaged.
# PC12-HS cells [2] = assay: Evaluation B: neurite-outgrowth action in presence of NGF; format: cell-based, rat; details: for Percentage (%) of cells with neurite outgrowth: 50 μl/well of 2 μg/ml test solution + NGF final 5 ng/ml; for Percentage (%) of cells with neurite outgrowth / Evaluation B: Neurite-outgrowth action: 3 days; for Evaluation B: Neurite-outgrowth action: 50 μl of 400 ng/ml test sample solution per well + NGF final 5 ng/ml
# [3] = target: T1, acetylcholine esterase (AchE) (Rattus norvegicus, UniProt P37136); assay: biochemical; format: biochemical
# T1 sequence (P37136 32-614): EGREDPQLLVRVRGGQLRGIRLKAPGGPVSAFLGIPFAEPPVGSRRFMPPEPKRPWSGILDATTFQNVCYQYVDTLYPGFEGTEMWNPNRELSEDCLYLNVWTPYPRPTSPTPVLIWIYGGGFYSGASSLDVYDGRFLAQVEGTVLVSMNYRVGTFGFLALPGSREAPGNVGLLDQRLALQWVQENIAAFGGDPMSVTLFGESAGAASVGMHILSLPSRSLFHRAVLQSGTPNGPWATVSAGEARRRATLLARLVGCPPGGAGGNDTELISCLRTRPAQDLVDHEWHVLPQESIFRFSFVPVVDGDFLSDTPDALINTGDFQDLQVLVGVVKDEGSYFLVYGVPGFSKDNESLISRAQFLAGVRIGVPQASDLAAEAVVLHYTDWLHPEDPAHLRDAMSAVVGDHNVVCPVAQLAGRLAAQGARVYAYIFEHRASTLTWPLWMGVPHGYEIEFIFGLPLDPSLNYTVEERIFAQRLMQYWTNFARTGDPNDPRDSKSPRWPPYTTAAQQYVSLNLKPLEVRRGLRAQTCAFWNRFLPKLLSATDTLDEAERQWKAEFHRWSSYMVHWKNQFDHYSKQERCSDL
# [4] = 100 μl/well of 100 ng/ml test solution, 3 days, control = 100
# [5] = compound concentration 25 ng/ml
# [6] = compound concentration 50 ng/ml
# [7] = compound concentration 100 ng/ml
# [8] = compound concentration 200 ng/ml
# [9] = compound concentration 80 ng/ml
# [10] = compound concentration 400 ng/ml
# [11] = compound concentration 2000 ng/ml
# [12] = compound concentration 10000 ng/ml
Compound,Action of enhancing cell growth (%) (PC12-HS cells [1]; [4]),Percentage (%) of cells with neurite outgrowth (PC12-HS cells [2]) [%],Evaluation B: Neurite-outgrowth action (PC12-HS cells [2]),further results
CC1=CS\C(=C/C=C(\C=C\c2scc(C)[n+]2C)c2scc(C)[n+]2C)N1C.[I-].[I-] [NK-2],126,4,–,–
CCN1C(C)=CS\C1=C/C=C(\C=C\c1scc(C)[n+]1CC)c1scc(C)[n+]1CC.[I-].[I-] [NK-13],125,5,–,Action of enhancing cell growth (%) (PC12-HS cells [1]; [5]): 126 ± 12%; Action of enhancing cell growth (%) (PC12-HS cells [1]; [6]): 140 ± 7%; Action of enhancing cell growth (%) (PC12-HS cells [1]; [7]): 231 ± 84%; Action of enhancing cell growth (%) (PC12-HS cells [1]; [8]): 209 ± 24%; Action on neurite outgrowth (%) (PC12-HS cells [2]; [9]): 10< %; Action on neurite outgrowth (%) (PC12-HS cells [2]; [10]): 10< %; Action on neurite outgrowth (%) (PC12-HS cells [2]; [11]): 10< %; Action on neurite outgrowth (%) (PC12-HS cells [2]; [12]): 10< %
CCCCN1C(C)=CS\C1=C/C=C(\C=C\c1scc(C)[n+]1CCCC)c1scc(C)[n+]1CCCC.[I-].[I-] [NK-24],581,33,–,–
CCCCCCCCCCCCN1C(C)=CS\C1=C/C=C(/C=C/c1scc(C)[n+]1CCCCCCCCCCCC)c1scc(C)[n+]1CCCCCCCCCCCC.[I-].[I-] [NK-32],199,16,–,–
CCCN1C(C)=CS\C1=C/C=C(\C=C\c1scc(C)[n+]1CCC)c1scc(C)[n+]1CCC.[I-].[I-] [NK-237],212,16,–,–
CCCCCCN1C(C)=CS\C1=C/C=C(\C=C\c1scc(C)[n+]1CCCCCC)c1scc(C)[n+]1CCCCCC.[I-].[I-] [NK-392],560,44,–,Action of enhancing cell growth (%) (PC12-HS cells [1]; [5]): 349 ± 63%; Action of enhancing cell growth (%) (PC12-HS cells [1]; [6]): 601 ± 93%; Action of enhancing cell growth (%) (PC12-HS cells [1]; [7]): 607 ± 71%; Action of enhancing cell growth (%) (PC12-HS cells [1]; [8]): 460 ± 41%; Action on neurite outgrowth (%) (PC12-HS cells [2]; [9]): 44 ± 12%; Action on neurite outgrowth (%) (PC12-HS cells [2]; [10]): 48 ± 2%; Action on neurite outgrowth (%) (PC12-HS cells [2]; [11]): 76 ± 8%; Action on neurite outgrowth (%) (PC12-HS cells [2]; [12]): 81 ± 10%
Cc1ccc2c(c1)S/C(=C\c1sc3cc(C)ccc3[n+]1C)N2C.[I-] [NK-594],–,–,∘ (The test sample with a neurite outgrowth rate of 30% or higher was judged to be equivalent or more (∘) compared with NK-4),–
CC[n+]1ccc(/C=C/c2ccc3c(c2)OCO3)c2ccccc21.[I-] [NK-629],–,–,∘ (The test sample with a neurite outgrowth rate of 30% or higher was judged to be equivalent or more (∘) compared with NK-4),–
CCN1/C(=C/C=C/c2cc[n+](CC)c3ccccc23)Oc2ccccc21.[I-] [NK-741],–,–,∘ (The test sample with a neurite outgrowth rate of 30% or higher was judged to be equivalent or more (∘) compared with NK-4),–
CCN1/C(=C/c2cc[n+](CC)c3ccccc23)Sc2ccccc21.[I-] [NK-750],–,–,∘ (The test sample with a neurite outgrowth rate of 30% or higher was judged to be equivalent or more (∘) compared with NK-4),–
CCN1/C(=C/c2oc3ccccc3[n+]2CC)Oc2ccccc21.[I-] [NK-863],–,–,∘ (The test sample with a neurite outgrowth rate of 30% or higher was judged to be equivalent or more (∘) compared with NK-4),–
CCN1/C(=C/c2ccc3ccccc3[n+]2CC)C=Cc2ccccc21.[Br-] [NK-1046],–,–,∘ (The test sample with a neurite outgrowth rate of 30% or higher was judged to be equivalent or more (∘) compared with NK-4),–
CCN1/C(=C/c2oc3ccccc3[n+]2CC)Sc2ccccc21.[I-] [NK-1049],–,–,∘ (The test sample with a neurite outgrowth rate of 30% or higher was judged to be equivalent or more (∘) compared with NK-4),–
CC[n+]1c(/C=C/c2ccc(N(C)C)cc2)[se]c2ccccc21.[I-] [NK-1055],–,–,∘ (The test sample with a neurite outgrowth rate of 30% or higher was judged to be equivalent or more (∘) compared with NK-4),–
CCN1/C(=C/c2sc3ccccc3[n+]2CC)Sc2ccccc21.[Br-] [NK-1560],–,–,∘ (The test sample with a neurite outgrowth rate of 30% or higher was judged to be equivalent or more (∘) compared with NK-4),–
CN1/C(=C/C2=[N+](C)c3ccccc3C2(C)C)Oc2ccccc21.[I-] [NK-1684],–,–,∘ (The test sample with a neurite outgrowth rate of 30% or higher was judged to be equivalent or more (∘) compared with NK-4),–
CCN1/C(=C/C=C/C=C/c2sc3ccc4ccccc4c3[n+]2CC)Sc2ccc3ccccc3c21.[I-] [NK-2409],–,–,∘ (The test sample with a neurite outgrowth rate of 30% or higher was judged to be equivalent or more (∘) compared with NK-4),–
CCN1/C(=C/C2=CC(=C/C=C/C3=CC(=C/c4sc5ccccc5[n+]4CC)/CC(C)(C)C3)/CC(C)(C)C2)Sc2ccccc21.[O-][Cl+3]([O-])([O-])[O-] [NK-2545],–,–,∘ (The test sample with a neurite outgrowth rate of 30% or higher was judged to be equivalent or more (∘) compared with NK-4),–
CCCCCCCCCCN1C(C)=CS\C1=C/C=C(\C=C\c1scc(C)[n+]1CCCCCCCCCC)c1scc(C)[n+]1CCCCCCCCCC.[I-].[I-] [NK-2844],399,54,–,–
CCCCCN1C(C)=CS\C1=C/C=C(\C=C\c1scc(C)[n+]1CCCCC)c1scc(C)[n+]1CCCCC.[I-].[I-] [NK-2850],553,56,–,–
CCCCCN1/C(=C/C2=[N+](C)c3ccccc3C2(C)C)C(C)(C)c2ccccc21.[O-][Cl+3]([O-])([O-])[O-] [NK-3206],–,–,∘ (The test sample with a neurite outgrowth rate of 30% or higher was judged to be equivalent or more (∘) compared with NK-4),–
CCCCCCCCCCCN1C(C)=CS\C1=C/C=C(/C=C/c1scc(C)[n+]1CCCCCCCCCCC)c1scc(C)[n+]1CCCCCCCCCCC.[I-].[I-] [NK-9640],191,13,–,–
CCCCCN1C=CC(=CC=C(C=Cc2cc[n+](CCCCC)c3ccccc23)c2cc[n+](CCCCC)c3ccccc23)c2ccccc21.[I-].[I-] [NK-9815],–,–,–,"Action of enhancing cell growth (%) (PC12-HS cells [1]; [5]): 304 ± 26%; Residual ratio of AchE activity (%) ([3]; concentration of compound 0.78 μg/ml): 82 ± 2%; Residual ratio of AchE activity (%) ([3]; concentration of compound 1.56 μg/ml): 98 ± 24%; Residual ratio of AchE activity (%) ([3]; concentration of compound 3.13 μg/ml): 93 ± 36%; Residual ratio of AchE activity (%) ([3]; concentration of compound 6.25 μg/ml): 94 ± 16%; Residual ratio of AchE activity (%) ([3]; concentration of compound 12.5 μg/ml): 56 ± 7 %; Residual ratio of AchE activity (%) ([3]; concentration of compound 25 μg/ml): 41 ± 14 %; Residual ratio of AchE activity (%) ([3]; concentration of compound 50 μg/ml): 24 ± 4 %; IC50 ([3]; concentration that suppresses AchE activity by 50%, calculated from residual ratios): 17.3 µg/mL; Action on neurite outgrowth (%) (PC12-HS cells [2]; [9]): 68 ± 12%; Action on neurite outgrowth (%) (PC12-HS cells [2]; [10]): 62 ± 12%; Action on neurite outgrowth (%) (PC12-HS cells [2]; [11]): 56 ± 2%; Action on neurite outgrowth (%) (PC12-HS cells [2]; [12]): 11 ± 2%"
